In ChEMBL document CHEMBL3507680, “University of Dundee, Gates Library screen for HepG2 cell viability” one finds cytotoxicity data, which are given here for 98 compounds.

A short description of this data set: Human HepG2 cell viability assay in 384 well format. It counts as toxicity, cell-based. Set-up: dose 125 nL, time 70.5 hour; cytotoxicity at 70.5 h: concentration not given beside the values. The following applies: HepG2 cells, read-out: Inhibition.
Take `Cn1c(=O)n(C)c2nc(Cl)c(CC(=O)c3ccc(F)cc3)n2c1=O`: the cytotoxicity at 70.5 h turned out to be 0.873%. On to `Cc1cc2n(n1)CC(CNC1CCN(c3ccccn3)CC1)CN2` (stereo not drawn), for which the cytotoxicity at 70.5 h is -0.0737%. Regarding `CN(Cc1ccccc1)CC1(O)CCCN(Cc2ccc(F)cc2)C1=O` (stereo not drawn), the cytotoxicity at 70.5 h was -3.64%. Then `COCCN1C(=O)CC[C@@H]2[C@H]1CCN2Cc1cccc(C#N)c1`, with -11.2%. Consider `Cc1cc(N2CCC(c3ncc[nH]3)CC2)cc(C)n1`, for which the cytotoxicity at 70.5 h is -3.01%. Then `O=C1COC2(CCN(c3ncccn3)CC2)CN1c1ccsc1`, with -4.75%; and `O=C([C@H]1CCCO1)N1CC[C@H](O)[C@@H]1Cc1cccnc1`, with -4.15%. On to `CSCCCN(CCN1CCOCC1)Cc1ccco1`, for which the cytotoxicity at 70.5 h is -9.79%. As to `CC(C)Oc1cc(N2C[C@H](C3CC3)[C@@H](N)C2)nc(N)n1`, the cytotoxicity at 70.5 h is -25.3%.

As to `O=C(NCCC1=CCCCC1)NC1CCCc2c1cnn2CCO` (stereo not drawn), the cytotoxicity at 70.5 h is -10.1%. Then `CCS(=O)(=O)N1Cc2c(Cn3ccnc3)nn(C(C)C)c2C1`, with 10.4%; and `c1ccc(C2CCCCN2Cc2nc(-c3cnccn3)no2)nc1` (stereo not drawn), with -1.69%; and `O=C(CCC(=O)N1CCCC1c1cccs1)N1CCc2sccc2C1` (stereo not drawn), with 2.92%. With `OC(CNCCn1cccn1)COc1ccc(Br)cc1` (stereo not drawn) the figure was -5.72%.

On to `COc1c(C2CCCN2CC(=O)N(C)Cc2ccco2)c(C)nn1C` (stereo not drawn), for which the cytotoxicity at 70.5 h is -5.02%. With `COc1ccc(CN2CCCn3cnc(COC(C)C)c3C2)cc1`, the cytotoxicity at 70.5 h stood at 23.2%. Consider `CC(=O)N1CCCn2c(nc(CNS(=O)(=O)C3CC3)cc2=O)C1`, for which the cytotoxicity at 70.5 h is -2.61%. On to `Cc1cnn(CC2CCCCN2C(=O)c2sccc2C#N)c1` (stereo not drawn), for which the cytotoxicity at 70.5 h is -4.1%. With `O=C(NCc1nnc2n1CCCCC2)N1CCc2ccccc2C1`, the cytotoxicity at 70.5 h worked out at 1.11%. With `CC(c1cccnc1)N1CCN(CCO)CC1` (stereo not drawn) the figure was 7.45%. Turning to `c1ccc(CN2CCO[C@H]3[C@H](OCCN4CCCC4)CC[C@@H]32)nc1`, the cytotoxicity at 70.5 h is -7.8%. As to `COc1ccc(OC)c(-n2cnnc2CCN)c1`, the cytotoxicity at 70.5 h was -4.57%. In the case of `COc1ccc(-n2ccnc2-c2cnc(C(C)C)nc2)cc1C(=O)O`, the cytotoxicity at 70.5 h was -3.39%. Then `COc1cccc(-c2n[nH]c3c2CN(C(=O)c2cc(C)n(C)n2)CC3)c1`, with -7.15%; and `Cc1cc(C)c2cc(CNC(C)C)c3nn(C)c(=O)n3c2c1`, with -1.75%.

On to `CCC(CC)n1nc(C)cc1NC(=O)CC1CCOCC1`, for which the cytotoxicity at 70.5 h was -8.16%. Consider `Cc1nc(C(=O)NC2CCN(CCOc3ccc(Br)cc3)CC2)cs1`, for which the cytotoxicity at 70.5 h amounted to 1.52%.

As for `Cc1noc(C)c1CN(C)CCC(=O)N1CCc2sccc2C1`, the cytotoxicity at 70.5 h is -4.03%.

Regarding `CC(=O)N1CCCN(C(=O)c2ccc(Cn3ccccc3=O)o2)CC1`, the cytotoxicity at 70.5 h is 2.33%. Regarding `Cn1c2c(c(=O)n1C)CN(S(=O)(=O)c1cccs1)CCC2`, the cytotoxicity at 70.5 h was -5.01%. On to `CC(=O)N1CCN(Cc2ccc(C(F)(F)F)cc2F)CC(O)C1` (stereo not drawn), for which the cytotoxicity at 70.5 h was -10.5%. On to `CCN(CC)S(=O)(=O)N1CCCC1C(=O)N1CCSCC1` (stereo not drawn), for which the cytotoxicity at 70.5 h is -2.8%. On to `Cc1cc(Cc2ccc(S(=O)(=O)N3CCSCC3)cc2)c(=O)[nH]n1`, for which the cytotoxicity at 70.5 h worked out at 1.5%.

As to `Cc1occc1C(=O)N1C[C@@H]2OCCN(C(C)C)[C@@H]2C1`, the cytotoxicity at 70.5 h amounted to 5.55%.

As for `NC(=O)c1ccnc(N2CCCC(CO)(Cc3ccc(F)cc3)C2)c1` (stereo not drawn), the cytotoxicity at 70.5 h was -6.25%. Regarding `Cc1cc(-c2cnc(N3CCC(O)CC3)nc2-c2cccnc2C)on1`, the cytotoxicity at 70.5 h came out at 8.43%. Then `CN(C)CCN1CC2(CCCN(c3ncc(Cl)cc3F)C2)CCC1=O` (stereo not drawn), with -5.68%. Then `CC(OCC1CC1)C(=O)N1CCCN(Cc2nccn2C)CC1` (stereo not drawn), with -11.2%. On to `CCc1c(C(=O)N2CC[C@H](N3CCOCC3)[C@H](CCCO)C2)csc1C`, for which the cytotoxicity at 70.5 h is -20.4%. Take `C[C@]1(O)CCN(Cc2c[nH]cn2)C[C@@H]1Oc1cccc(F)c1`: the cytotoxicity at 70.5 h is -7.83%. Take `CCC(C(=O)NCc1noc(Cc2cccs2)n1)n1cccn1` (stereo not drawn): the cytotoxicity at 70.5 h came out at 26%. Regarding `CC(=O)N1CCC2(CN(CC3CCCC3)C2)C1`, the cytotoxicity at 70.5 h was -3.32%.

On to `O=C(O)c1ccc(CN2CCCC(Cc3ccn[nH]3)C2)cc1` (stereo not drawn), for which the cytotoxicity at 70.5 h is -4.91%. On to `CC1CCc2nc(O)c(C(=O)NCc3ccncc3)cc2C1` (stereo not drawn), for which the cytotoxicity at 70.5 h stood at 5.88%. As for `Cc1cnc(-c2cccc(-c3ccn(CCCO)n3)c2)nc1N(C)C`, the cytotoxicity at 70.5 h was -3.76%. For the compound `Cc1ccsc1CN(CCN(C)C)C(=O)c1ccccc1C#N`, the cytotoxicity at 70.5 h was -0.2%. With `COc1ccc(N2CCCN(C(=O)Cc3csc(C)n3)CC2)cc1` the figure was 0.0529%; with `CN1N=C(C(=O)N2CCCC(CCc3c(F)cccc3F)C2)CCC1=O` (stereo not drawn), -8.44%; with `Cc1cc(CNc2cc(Cl)ccc2OCCS(C)(=O)=O)no1`, 13.3%.

`CN1CCS(=O)(=O)[C@@H]2CCN(C(=O)CC(C)(C)C)CC[C@@H]21`: the cytotoxicity at 70.5 h is -3.84%. Turning to `CN(C)Cc1ccc(C2CCCCN2C(=O)c2cccc(CO)n2)cc1` (stereo not drawn), the cytotoxicity at 70.5 h was found to be 23.6%.

Consider `O=S(=O)(NCCNc1ccc(-n2cccn2)nn1)c1ccccc1`, for which the cytotoxicity at 70.5 h is -2.97%. Then `Cc1cc(=O)[nH]cc1C(=O)N1Cc2ccccc2N(C)CC1C` (stereo not drawn), with 26%; and `CC(C)Cc1noc(-c2ccc(NCc3noc(C(C)C)n3)nc2)n1`, with -5.16%. For the compound `C=C(C)COc1cccc(C(=O)N(CC)Cc2noc(C)n2)c1`, the cytotoxicity at 70.5 h was -3.04%. With `COCCNc1ccc(CNCc2cnc3nc(C)cc(C)n23)cc1`, the cytotoxicity at 70.5 h is -9.55%.

`COc1ccc(C(C)N2CCC(C(=O)NC3CC3)CC2)cc1Cl` (stereo not drawn): the cytotoxicity at 70.5 h is -7.15%. Turning to `CCN(CC)Cc1ccc(C(=O)NC2CCc3cc(F)ccc32)o1` (stereo not drawn), the cytotoxicity at 70.5 h is -19%. With `CC(C)(C)c1cc(NC(=O)NCCc2nnc3n2CCC3)c(C#N)s1` the figure was 8.88%. Regarding `CS(=O)(=O)N1CCC(NC(=O)COc2ccc3ccccc3c2)CC1`, the cytotoxicity at 70.5 h is -1.61%. As for `CCS(=O)(=O)N1CC[C@@H]2[C@H](CC1)N(CC(C)C)CCS2(=O)=O`, the cytotoxicity at 70.5 h was -1.74%.

As to `COc1cccc(CN(Cc2ccco2)Cc2[nH]cnc2C)c1`, the cytotoxicity at 70.5 h worked out at 6.19%. On to `O=C(N1CCOCC1)[C@@]12CCO[C@@H]1CCN(CC1CCCC1)C2`, for which the cytotoxicity at 70.5 h amounted to 49.2%.

With `Cc1cc(CN2CCN(CC(=O)NC3(C#N)CCCCC3)CC2)on1`, the cytotoxicity at 70.5 h is 2.07%. For `CC(SCCNS(=O)(=O)c1cnn(C)c1)c1cccc(F)c1` (stereo not drawn), the cytotoxicity at 70.5 h was -5.51%. Regarding `CCOCc1nn(CC2CC2)c2c1CN(Cc1cccs1)CC2`, the cytotoxicity at 70.5 h is -6.81%. With `c1ccc(Cn2cc(CNCC3CNc4ccnn4C3)cn2)cc1` (stereo not drawn), the cytotoxicity at 70.5 h stood at 32.4%. With `O=C1CCC2(CCN(CC[C@H](O)c3ccccc3)CC2)CN1CCO` the figure was 1.6%; with `Nc1nc(CN2CCOC(Cn3cccn3)C2)nc2ccccc12` (stereo not drawn), -11.8%; with `CN(C)CC1CN(C(=O)NCc2ccccc2)Cc2nccn2C1` (stereo not drawn), -5.97%. Turning to `Cc1cncc(C2CCCN(C(=O)c3ccc(C)[nH]c3=O)C2)n1` (stereo not drawn), the cytotoxicity at 70.5 h was -4.5%. Turning to `Cc1cc(CNC(=O)N2CCN(c3nc(C)c(C)s3)CC2)no1`, the cytotoxicity at 70.5 h was 7.38%. `CCN1Cc2ccccc2N(C(=O)C2CCC2)CCC1=O`: the cytotoxicity at 70.5 h was -5.17%.

Take `CN1CCCN(c2ccc(F)cc2CNC(=O)c2cccnc2)CC1`: the cytotoxicity at 70.5 h worked out at 29.2%. On to `O=C(O)CN(C(=O)c1ccccc1)[C@H]1C[C@H]2CCOC[C@H]2C1`, for which the cytotoxicity at 70.5 h was -10.1%. As to `Cc1nccn1Cc1nnc(C2CCCN(c3ncccc3F)C2)n1C` (stereo not drawn), the cytotoxicity at 70.5 h was -17.5%. Take `Cc1nonc1CNC(=O)C(C)Oc1ccccc1F` (stereo not drawn): the cytotoxicity at 70.5 h is -7.96%. With `CC(=O)NC[C@H]1COCc2nc3c(C)cccc3n21` the figure was 10.8%; with `O=C1CN(Cc2cc(O)c3cccc(F)c3n2)CCN1C1CCCC1`, 5.5%. On to `CCS(=O)(=O)NC[C@]12COC[C@H]1CN(Cc1ccccn1)C2`, for which the cytotoxicity at 70.5 h was -3.72%.

For `Cc1cc(NCC2CCCCC2)n2ncnc2n1`, the cytotoxicity at 70.5 h is -2.65%. In the case of `Cc1nc(CC(=O)N2CCN(C)CC2c2ccccc2)cs1` (stereo not drawn), the cytotoxicity at 70.5 h was -0.955%. On to `CCc1nnc(SCC(=O)N2CCc3[nH]nc(C4CCC4)c3C2)o1`, for which the cytotoxicity at 70.5 h was -2.31%. For `Cc1cnc(CN2CCC(N(C)Cc3noc(C4CC4)n3)C2)o1` (stereo not drawn), the cytotoxicity at 70.5 h amounted to 11.7%. On to `Cn1c(-c2ccccc2Cl)nc2cc(C(=O)NCC3(C)COC3)cnc21`, for which the cytotoxicity at 70.5 h worked out at 4.56%. Turning to `Cc1ccnc(NC(=O)C2CCN(CCCc3cn[nH]c3)CC2)c1`, the cytotoxicity at 70.5 h was -14.2%. As to `Cc1c(F)cccc1S(=O)(=O)N(C)CC(C)O` (stereo not drawn), the cytotoxicity at 70.5 h is -11.6%. Then `CS(=O)(=O)NCCN1CCSCC1c1ccc(Cl)cc1` (stereo not drawn), with -2.66%. With `CN1CCCC2(CCN(C(=O)CCn3cncn3)C2)C1=O` (stereo not drawn) the figure was -10.5%.

As to `CCC(=O)NC1CCCN(Cc2ccc(-n3ccnc3)cc2)C1` (stereo not drawn), the cytotoxicity at 70.5 h was -4.83%. As to `COc1ccc(C(=O)N2CCC3(CCC(=O)N(C(C)C)C3)CC2)cc1C`, the cytotoxicity at 70.5 h was -6.63%.

As for `Cc1oc(-c2cccc(F)c2F)nc1CN(C)CCO`, the cytotoxicity at 70.5 h was -7.35%.

Take `c1ccc(CN2CC[C@H]3CO[C@H](CNc4ncccn4)[C@H]3C2)nc1`: the cytotoxicity at 70.5 h is -0.901%.

Turning to `Cc1cccc(C)c1OCC(=O)Nc1cccn(C)c1=O`, the cytotoxicity at 70.5 h was -4.44%. As to `Cc1nn(C)cc1C(=O)NC(CC(C)C)C(=O)Nc1cc[nH]n1` (stereo not drawn), the cytotoxicity at 70.5 h was 12.6%.

Consider `CC(Cn1ccnc1)NC(=O)NCCNC(=O)C(C)C` (stereo not drawn), for which the cytotoxicity at 70.5 h worked out at 16.2%.

For `Cc1nccn1-c1cc(CNS(=O)(=O)N2CCCC(C)C2)ccn1` (stereo not drawn), the cytotoxicity at 70.5 h worked out at 18%. `O=C1CCC(c2nc(C3CCN(C(=O)C4CC4)CC3)no2)N1` (stereo not drawn): the cytotoxicity at 70.5 h was -4.42%.
